Laboratory results as given in US7893048B2, “2-azetidinone derivatives as cholesterol absorption inhibitors for the treatment of hyperlipidaemic conditions” (AstraZeneca AB, priority 2005, dated 2011).

Key:
[1] = system: 14C-cholesterol absorption; assay: In vivo testing of cholesterol absorption inhibitors (A); details: Mus musculus, po; 0.2 μmol/kg by gavage, procedure A, C57BL/6 female mice
Protocol: In Vivo Testing of Cholesterol Absorption Inhibitors (A)
C57BL/6 female mice were maintained on regular chow diet and housed in individual cages to collect faeces. Mice were fasted for 3 hours and then gavaged with vehicle or compound. Half an hour later the mice were gavaged with radiolabelled cholesterol. Six hours after the ^14C-cholesterol gavage blood samples were taken via the tail and plasma prepared to determine how much cholesterol were absorbed. 24 hours after the gavage of ^14C-cholesterol the mice were bled and plasma were prepared for analysis. Faeces were collected for 24 hours to assess absorption efficiency.

[2] = Absorption in a Caco-2 cells model; format: in vitro ADME; details: human
Protocol: Absorption of the compounds of formula (I) was tested in a Caco-2 cells model (Gastroenterology 1989, 96, 736): […]

Papp [2] | SMILES | inhibition at 0.2 µmol/kg [1]
– | CC(C)(C)[C@@H](NC(=O)CNC(=O)COc1ccc([C@@H]2[C@@H](SCC(O)c3ccc4c(c3)CCO4)C(=O)N2c2ccc(F)cc2)cc1)C(=O)O (stereo partly drawn) [Example 4, N-({4-[(2R,3R)-3-{[2-(2,3-dihydro-1-benzofuran-5-yl)-2-hydroxyethyl]thio}-1-(4-fluorophenyl)-4-oxoazetidin-2-yl]phenoxy}acetyl)glycyl-3-methyl-D-valine] | 53%
– | NCCCC[C@@H](NC(=O)CNC(=O)COc1ccc([C@@H]2[C@@H](SCC(O)c3ccc4c(c3)CCO4)C(=O)N2c2ccc(F)cc2)cc1)C(=O)O (stereo partly drawn) [Example 3, N-({4-[(2R,3R)-3-{[2-(2,3-dihydro-1-benzofuran-5-yl)-2-hydroxyethyl]thio}-1-(4-fluorophenyl)-4-oxoazetidin-2-yl]phenoxy}acetyl)glycyl-D-lysine] | 59%
0.05 ×10⁻⁶ cm/s | O=C(COc1ccc([C@@H]2[C@@H](SCC(O)c3ccc4c(c3)CCO4)C(=O)N2c2ccc(F)cc2)cc1)NCC(=O)N[C@H](CC1CCCCC1)C(=O)O (stereo partly drawn) [Example 1, N-({4-[(2R,3R)-3-{[2-(2,3-dihydro-1-benzofuran-5-yl)-2-hydroxyethyl]thio}-1-(4-fluorophenyl)-4-oxoazetidin-2-yl]phenoxy}acetyl)glycyl-3-cyclohexyl-D-alanine] | –
